In ChEMBL document CHEMBL1201862, “PubChem BioAssay data set” (2004):
Calls of active or inactive are those of the source.

Assays:
[1] = microbe, parasite or virus in culture; type: functional; conditions: Mycobacterium tuberculosis
[2] = growth suppression of PTEN-null colon cells, dose response, cell-based, HCT116 PTEN knockout (AID 1047); type: functional;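 note: HCT116 colon tumor cells with PTEN knocked out; cells exposed to compound for 60 hours before readout; potency for loss of cell viability measured by luminescence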
[3] = growth suppression of beta-catenin-knockout colon cells, dose response, cell-based, HCT116, human colon tumor (AID 1045); type: functional;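 note: HCT116 colon tumor cells with beta catenin knocked out; cells exposed to compound for 60 hours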
[4] = Shn3 3'UTR reporter inhibitors, dose response, cell-based, Clone20 osteoblasts, firefly luciferase, cherry-picked (AID 624132); type: functional;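 note: firefly luciferase luminescence from reporter carrying the Shn3 3'UTR in osteoblasts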
[5] = HepG2 cell cytotoxicity, dose response, cytotoxicity control for Shn3 inhibitor project, CellTiter-Glo, cherry-picked (AID 624134); type: functional, cell-based
[6] = control 3'UTR Renilla luciferase suppression, dose response, counter-screen for Shn3 inhibitor project, cell-based, Clone20-Shn3RL, cherry-picked (AID 624133); type: functional
Paired box protein Pax-8 = Paired box protein Pax-8 (Homo sapiens, UniProt Q06710); assay: inhibitors of PAX8-driven TPO luciferase reporter, dose response, RMG-I cells, cherry-pick (AID 687027); type: functional, cell-based;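 note: luciferase reporter driven by Pax8 target thyroperoxidase promoter measured by SteadyGlo luminescence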
Chain of Paired box protein Pax-8 (Q06710 whole entry): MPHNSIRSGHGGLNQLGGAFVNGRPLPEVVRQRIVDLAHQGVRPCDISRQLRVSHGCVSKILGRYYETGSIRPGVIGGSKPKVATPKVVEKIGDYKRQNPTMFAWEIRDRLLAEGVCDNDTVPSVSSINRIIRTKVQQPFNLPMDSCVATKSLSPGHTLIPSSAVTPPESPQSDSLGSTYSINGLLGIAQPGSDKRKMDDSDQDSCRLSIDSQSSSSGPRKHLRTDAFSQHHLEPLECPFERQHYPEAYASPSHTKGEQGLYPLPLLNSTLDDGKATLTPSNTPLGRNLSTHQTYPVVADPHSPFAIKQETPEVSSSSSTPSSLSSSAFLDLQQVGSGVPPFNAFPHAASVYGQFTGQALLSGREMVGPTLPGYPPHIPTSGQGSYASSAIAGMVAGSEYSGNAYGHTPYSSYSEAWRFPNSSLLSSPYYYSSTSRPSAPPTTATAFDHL

Aminopeptidase N = molecular target: T1, Aminopeptidase N (Plasmodium falciparum FcB1/Columbia, UniProt O96935); assay: P. falciparum M1AAP inhibitors, biochemical, fluorogenic H-Leu-NHMec substrate, 1536-well (AID 1445); set-up: species or system Plasmodium falciparum 3D7, 3D7
T1 sequence (O96935 whole entry): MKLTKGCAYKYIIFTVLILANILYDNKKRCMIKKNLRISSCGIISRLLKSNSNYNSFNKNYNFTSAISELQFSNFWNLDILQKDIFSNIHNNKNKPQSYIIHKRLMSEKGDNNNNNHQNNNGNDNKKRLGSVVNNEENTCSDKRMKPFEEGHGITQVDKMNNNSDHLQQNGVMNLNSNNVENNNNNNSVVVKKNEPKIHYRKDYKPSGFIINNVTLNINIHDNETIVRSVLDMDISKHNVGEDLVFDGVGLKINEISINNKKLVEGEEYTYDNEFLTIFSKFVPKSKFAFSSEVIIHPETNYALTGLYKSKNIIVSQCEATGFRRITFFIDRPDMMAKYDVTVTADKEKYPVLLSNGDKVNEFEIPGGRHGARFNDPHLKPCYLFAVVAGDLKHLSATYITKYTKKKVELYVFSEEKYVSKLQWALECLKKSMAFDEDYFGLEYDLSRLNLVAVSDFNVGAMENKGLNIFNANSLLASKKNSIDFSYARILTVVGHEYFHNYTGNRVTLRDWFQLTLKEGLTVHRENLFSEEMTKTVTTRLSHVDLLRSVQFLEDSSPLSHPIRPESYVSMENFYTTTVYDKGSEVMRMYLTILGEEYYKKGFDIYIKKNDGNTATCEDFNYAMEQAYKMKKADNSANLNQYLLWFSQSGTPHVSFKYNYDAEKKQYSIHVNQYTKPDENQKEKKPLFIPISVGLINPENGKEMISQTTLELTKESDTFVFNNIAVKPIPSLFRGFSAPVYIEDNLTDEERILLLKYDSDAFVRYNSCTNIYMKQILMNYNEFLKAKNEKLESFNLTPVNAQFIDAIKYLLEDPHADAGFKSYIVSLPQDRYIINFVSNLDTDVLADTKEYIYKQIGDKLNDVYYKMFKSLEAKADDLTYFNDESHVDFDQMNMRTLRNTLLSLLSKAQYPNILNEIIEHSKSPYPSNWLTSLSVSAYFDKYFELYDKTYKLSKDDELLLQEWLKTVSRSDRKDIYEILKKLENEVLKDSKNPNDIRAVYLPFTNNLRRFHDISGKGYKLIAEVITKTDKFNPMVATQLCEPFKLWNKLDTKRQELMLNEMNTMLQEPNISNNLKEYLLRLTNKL

[7] = cytotoxicity in HEK-293T cells, dose response, cytotoxicity control for BCR NF-kB inhibitor project, luminescence, B-cell screen hits (AID 489021); type: functional, cell-based;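 note: HEK-293T cells carrying an NF-kB luciferase reporter; cells exposed to compound for about 14 hours before viability readout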
[8] = tested on: Streptococcus sp. 'group A'; assay: growth inhibition of control SK(-) GAS strain, dose response, counter-screen for streptokinase expression inhibitor project, luminescence, kanamycin, BacTiterGlo, confirmation (AID 1900); type: functional, organism-based
Streptokinase A = molecular target: T2, Streptokinase A (Streptococcus pyogenes serotype M1, UniProt P10520); assay: S. pyogenes streptokinase expression inhibitors, potency, dose response, plasminogen activation absorbance, OD405 (AID 1914); type: functional, Streptococcus pyogenes M1 GAS;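 note: secreted streptokinase activity via plasminogen activation per viability signal from cell pellet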
T2 sequence (P10520 whole entry): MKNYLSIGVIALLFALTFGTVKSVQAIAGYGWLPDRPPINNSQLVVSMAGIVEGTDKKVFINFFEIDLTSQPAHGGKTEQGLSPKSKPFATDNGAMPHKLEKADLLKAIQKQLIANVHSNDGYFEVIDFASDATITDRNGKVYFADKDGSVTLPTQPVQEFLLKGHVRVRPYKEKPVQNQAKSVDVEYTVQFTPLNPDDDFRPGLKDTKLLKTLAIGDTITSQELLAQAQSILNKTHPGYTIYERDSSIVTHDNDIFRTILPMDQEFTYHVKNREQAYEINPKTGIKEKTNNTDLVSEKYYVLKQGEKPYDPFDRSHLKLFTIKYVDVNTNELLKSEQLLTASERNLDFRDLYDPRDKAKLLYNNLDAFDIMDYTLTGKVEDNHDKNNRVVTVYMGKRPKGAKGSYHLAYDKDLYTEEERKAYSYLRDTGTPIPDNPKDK

Streptococcus = assay: Group A Streptococcus viability loss, dose response, counter-screen for streptokinase expression inhibitor project, luminescence, BacTiterGlo (AID 1915); type: functional, organism-based;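 note: potency for reduction of bacterial viability or growth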
Cysteine protease ATG4B = molecular target: T3, Cysteine protease ATG4B (Homo sapiens, UniProt Q9Y4P1); type: functional;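 note: Fluorescence-based dose-response confirmation assay measuring inhibition of ATG4B activity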
T3 sequence (Q9Y4P1 whole entry): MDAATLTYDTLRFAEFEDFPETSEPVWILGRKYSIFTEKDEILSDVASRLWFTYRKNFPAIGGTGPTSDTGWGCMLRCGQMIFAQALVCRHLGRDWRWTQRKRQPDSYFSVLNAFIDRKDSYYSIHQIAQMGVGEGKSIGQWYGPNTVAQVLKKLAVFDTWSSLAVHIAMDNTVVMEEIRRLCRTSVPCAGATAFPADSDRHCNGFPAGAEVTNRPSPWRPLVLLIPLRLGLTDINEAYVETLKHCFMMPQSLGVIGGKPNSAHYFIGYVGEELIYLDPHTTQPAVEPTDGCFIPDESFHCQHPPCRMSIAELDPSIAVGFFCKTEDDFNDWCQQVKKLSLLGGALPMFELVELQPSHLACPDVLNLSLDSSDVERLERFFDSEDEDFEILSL

[9] = molecular target: T4, Replicative DNA helicase DnaB (Mycobacterium tuberculosis, UniProt P9WMR3); assay: DnaB intein splicing inhibitors, dose response, biochemical, cell-free fluorescence (AID 449749); type: functional
T4 sequence (P9WMR3 whole entry): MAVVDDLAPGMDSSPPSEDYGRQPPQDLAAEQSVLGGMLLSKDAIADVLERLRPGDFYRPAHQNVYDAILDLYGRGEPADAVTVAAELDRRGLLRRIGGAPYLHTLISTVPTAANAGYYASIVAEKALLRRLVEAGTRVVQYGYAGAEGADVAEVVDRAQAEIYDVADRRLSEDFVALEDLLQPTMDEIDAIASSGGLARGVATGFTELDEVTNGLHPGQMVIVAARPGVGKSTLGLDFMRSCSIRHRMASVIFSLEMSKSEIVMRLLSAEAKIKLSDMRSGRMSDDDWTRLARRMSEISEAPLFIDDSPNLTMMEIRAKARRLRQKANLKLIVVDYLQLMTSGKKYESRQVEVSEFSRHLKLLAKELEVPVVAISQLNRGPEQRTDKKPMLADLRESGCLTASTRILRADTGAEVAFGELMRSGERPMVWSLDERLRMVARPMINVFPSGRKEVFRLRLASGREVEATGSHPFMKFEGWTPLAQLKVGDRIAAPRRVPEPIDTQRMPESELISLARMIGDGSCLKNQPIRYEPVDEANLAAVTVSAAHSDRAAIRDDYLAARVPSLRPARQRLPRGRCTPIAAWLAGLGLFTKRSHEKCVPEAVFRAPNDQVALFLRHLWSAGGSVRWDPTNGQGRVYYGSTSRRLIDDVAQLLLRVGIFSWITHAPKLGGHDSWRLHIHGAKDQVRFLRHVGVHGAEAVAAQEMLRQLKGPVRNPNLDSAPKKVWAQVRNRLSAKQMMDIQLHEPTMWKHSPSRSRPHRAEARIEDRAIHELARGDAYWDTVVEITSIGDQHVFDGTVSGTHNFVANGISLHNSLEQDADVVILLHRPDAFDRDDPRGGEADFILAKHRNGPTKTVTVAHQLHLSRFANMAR

Phospholipase A2 = Phospholipase A2 (Homo sapiens, UniProt P04054); type: functional;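 note: confirmatory dose-response counterscreen on phospholipase A2, testing hits that came from an ultra-high-throughput screen for ATG4B inhibitors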
Chain of Phospholipase A2 (P04054 whole entry): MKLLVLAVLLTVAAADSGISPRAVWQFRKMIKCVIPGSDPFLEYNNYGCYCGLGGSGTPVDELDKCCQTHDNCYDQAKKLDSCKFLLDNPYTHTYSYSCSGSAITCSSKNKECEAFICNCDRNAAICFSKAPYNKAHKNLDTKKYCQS

Protein RecA = molecular target: T5, Protein RecA (Mycobacterium tuberculosis, UniProt P9WHJ3); assay: Fluorescence Cell-Free Homogeneous Dose Retest to Identify Inhibitors of RecA-Intein Splicing Activity. [Related pubchem assays (depositor defined):AID2097, AID2223, AID489010, AID492950]; type: functional
T5 sequence (P9WHJ3 whole entry): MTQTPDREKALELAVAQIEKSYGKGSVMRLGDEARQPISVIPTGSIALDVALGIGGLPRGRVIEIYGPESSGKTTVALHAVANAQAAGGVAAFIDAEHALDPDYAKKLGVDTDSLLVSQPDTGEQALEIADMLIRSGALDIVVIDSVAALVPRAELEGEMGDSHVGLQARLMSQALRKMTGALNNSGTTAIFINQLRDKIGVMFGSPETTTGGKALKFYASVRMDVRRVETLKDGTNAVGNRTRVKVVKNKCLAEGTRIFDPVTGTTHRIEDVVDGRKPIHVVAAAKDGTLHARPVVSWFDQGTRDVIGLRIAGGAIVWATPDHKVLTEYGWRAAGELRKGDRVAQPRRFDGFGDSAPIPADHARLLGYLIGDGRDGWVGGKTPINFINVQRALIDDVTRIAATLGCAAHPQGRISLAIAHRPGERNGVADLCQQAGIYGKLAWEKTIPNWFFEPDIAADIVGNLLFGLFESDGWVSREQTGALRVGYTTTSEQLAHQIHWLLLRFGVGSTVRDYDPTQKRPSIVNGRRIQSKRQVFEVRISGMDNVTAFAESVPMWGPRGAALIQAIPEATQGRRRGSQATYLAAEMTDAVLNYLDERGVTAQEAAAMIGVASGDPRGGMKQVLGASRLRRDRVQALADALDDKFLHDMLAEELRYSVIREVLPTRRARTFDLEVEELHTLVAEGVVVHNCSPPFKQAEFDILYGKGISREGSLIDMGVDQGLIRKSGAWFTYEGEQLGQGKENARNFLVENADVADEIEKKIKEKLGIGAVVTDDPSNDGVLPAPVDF

Cytochrome P450 2D6 = Cytochrome P450 2D6 (Homo sapiens, UniProt P10635);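 note: CYP2D6 member of a cytochrome P450 panel assay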
Chain of Cytochrome P450 2D6 (P10635 whole entry): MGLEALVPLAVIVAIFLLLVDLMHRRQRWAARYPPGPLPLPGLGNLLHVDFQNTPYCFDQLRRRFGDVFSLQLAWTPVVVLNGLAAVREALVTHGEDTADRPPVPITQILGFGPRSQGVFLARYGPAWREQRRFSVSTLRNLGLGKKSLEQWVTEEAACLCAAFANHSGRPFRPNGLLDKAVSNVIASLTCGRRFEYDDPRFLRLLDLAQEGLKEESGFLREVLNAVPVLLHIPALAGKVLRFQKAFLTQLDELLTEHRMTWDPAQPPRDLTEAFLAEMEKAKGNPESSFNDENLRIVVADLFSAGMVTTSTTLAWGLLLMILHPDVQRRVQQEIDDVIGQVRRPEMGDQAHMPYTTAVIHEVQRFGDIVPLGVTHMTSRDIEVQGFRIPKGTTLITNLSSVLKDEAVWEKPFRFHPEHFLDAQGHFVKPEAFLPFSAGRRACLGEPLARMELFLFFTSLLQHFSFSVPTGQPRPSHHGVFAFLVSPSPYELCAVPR

Cytochrome P450 2C9 = Cytochrome P450 2C9 (Homo sapiens, UniProt P11712)
Chain of Cytochrome P450 2C9 (P11712 whole entry): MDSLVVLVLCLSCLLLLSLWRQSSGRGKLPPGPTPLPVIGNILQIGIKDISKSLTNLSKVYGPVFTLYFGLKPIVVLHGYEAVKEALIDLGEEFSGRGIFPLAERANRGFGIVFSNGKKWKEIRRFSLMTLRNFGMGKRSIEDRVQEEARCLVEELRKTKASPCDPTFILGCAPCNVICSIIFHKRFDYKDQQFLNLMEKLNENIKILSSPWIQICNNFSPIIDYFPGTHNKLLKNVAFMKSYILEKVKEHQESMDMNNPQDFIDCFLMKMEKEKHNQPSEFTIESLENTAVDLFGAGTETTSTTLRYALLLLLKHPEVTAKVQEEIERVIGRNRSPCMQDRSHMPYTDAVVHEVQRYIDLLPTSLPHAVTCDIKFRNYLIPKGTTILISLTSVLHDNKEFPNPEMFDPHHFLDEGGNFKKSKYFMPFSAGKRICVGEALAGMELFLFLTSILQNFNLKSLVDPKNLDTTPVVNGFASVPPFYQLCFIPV

[10] = molecular target: Glyceraldehyde-3-phosphate dehydrogenase (Homo sapiens, UniProt P04406)
Chain of Glyceraldehyde-3-phosphate dehydrogenase (P04406 whole entry): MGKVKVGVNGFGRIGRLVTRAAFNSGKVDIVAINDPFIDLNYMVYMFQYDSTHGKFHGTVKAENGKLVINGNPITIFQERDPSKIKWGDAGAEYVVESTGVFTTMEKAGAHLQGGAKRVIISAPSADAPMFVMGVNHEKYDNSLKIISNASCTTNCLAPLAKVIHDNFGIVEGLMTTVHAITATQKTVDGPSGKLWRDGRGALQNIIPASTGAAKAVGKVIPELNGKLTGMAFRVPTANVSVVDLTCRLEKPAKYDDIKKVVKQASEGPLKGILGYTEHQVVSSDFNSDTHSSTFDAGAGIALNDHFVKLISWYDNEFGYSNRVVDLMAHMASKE

In the case of `C=C1C(=O)[C@@]23[C@H](O)C[C@@H]4C(C)(C)CC[C@H](O)[C@@]4(C)[C@@H]2CC[C@@H]1[C@H]3O` [KAMEBANIN], the CC50 [1] is reported as 5.73 µM (active), the EC50 [2] is reported as 1.17 µM (active) and the EC50 [3] is reported as 1.02 µM (active). For the same molecule, the AC50 [4] was 1.29 µM (active), the AC50 [5] was 26.3 µM (active) and the AC50 [6] was 4.85 µM (active). For the same molecule, the AC50 (Paired box protein Pax-8) was 1.16 µM (active).
With `O=C(N/N=C/c1cccnc1)c1cc(-c2ccccc2OCc2ccccc2)[nH]n1` the IC50 (Aminopeptidase N) was 31.2 µM (active) and the IC50 [7] was 53.1 µM (inactive).
For `NS(=O)(=O)c1ccc(N2N=C(c3ccccc3)CC2c2ccc(F)cc2)cc1` (stereo not given), the IC50 (Aminopeptidase N) was 62 µM (active), the EC50 [8] was 6.96 µM (active) and the EC50 (Streptokinase A) was 55.2 µM (active). The EC50 (Streptococcus) was 18.7 µM (active).
With `CCCc1nc2sc3c(c2c(=O)n1NC(=O)c1ccco1)CC(C)(C)OC3` the IC50 (Aminopeptidase N) was 36.1 µM (active).
For `Cc1ccc(-c2[nH]nc3c2C(c2ccc(OC(=O)N4CCOCC4)cc2)C(C#N)=C(N)O3)cc1` (stereo not given), the IC50 (Cysteine protease ATG4B) was 15.8 µM (active), the AC50 [9] was 4.61 µM (active) and the IC50 (Phospholipase A2) was 11.7 µM (active). For the same molecule, the EC50 (Protein RecA) was 1.18 µM (active).
With `O=C1OC[C@H](Cc2ccc3c(c2)OCO3)/C1=C\c1ccc2c(c1)OCO2` [SAVININ] the AC50 [4] was 2.66 µM (active), the AC50 [5] was 59.8 µM (active) and the AC50 [6] was 23.1 µM (active).
For `CC(C)(C)c1ccc(C(=O)C2CCCN(C(=O)c3ccccn3)C2)cc1` (stereo not given), the IC50 (Cysteine protease ATG4B) was 15.1 µM (active) and the IC50 (Phospholipase A2) was 11.5 µM (active).
For `COC(=O)N/N=C/c1cn(CCCOc2ccc(C)cc2)c2ccccc12`, the IC50 (Cysteine protease ATG4B) was 10.3 µM (active) and the IC50 (Phospholipase A2) was 7.39 µM (active).
For `Cc1cccc(NC(S)=NNC(=O)c2csc3c2CCCC3)c1`, the IC50 (Cysteine protease ATG4B) was 11.2 µM (active), the IC50 (Phospholipase A2) was 13.2 µM (active) and the AC50 (Cytochrome P450 2D6) was 25.1 µM (inconclusive). For the same molecule, the AC50 (Cytochrome P450 2C9) was “inconclusive”.
For `Cc1ccccc1C1C2=C(O)c3ccccc3C2=Nc2nn(-c3ccccc3)c(O)c21` (stereo not given), the IC50 (Aminopeptidase N) was 40.4 µM (active).
In the case of `NC(c1csc(NC(=O)Nc2cccc(C(F)(F)F)c2)n1)C1CCCCC1` (stereo not given), the AC50 [4] is reported as 4.81 µM (active), the AC50 [5] is reported as 11.3 µM (active) and the AC50 [6] is reported as 7.42 µM (active).
In the case of `O=C(c1ccc(-n2c(SCc3cccc(F)c3)nc3ccccc3c2=O)cc1)N1CCOCC1`, the IC50 (Cysteine protease ATG4B) is reported as 10.1 µM (active) and the IC50 (Phospholipase A2) is reported as 8.49 µM (active).
In the case of `Cc1ccc(NC(=O)CSc2nn(-c3ccccc3)c(=S)s2)cc1S(=O)(=O)N(C)C`, the AC50 [4] is reported as 5.82 µM (active), the AC50 [5] is reported as 45.6 µM (active) and the AC50 [6] is reported as 55.6 µM (active).
With `O=C(O)Cc1ccc(/C(=N\O)c2cccs2)s1` the IC50 [10] was > 100 µM (not active).
In the case of `O=C(COc1ccccc1/C=C\c1nc(O)c([N+](=O)[O-])c(O)n1)Nc1ccccc1`, the IC50 (Aminopeptidase N) is reported as 49 µM (active).
